# Source: ChEMBL document CHEMBL3886143, “(Hetero)aryl cyclopropylamine compounds as LSD1 inhibitors” (2016)
# Molecular target: T1, Amine oxidase [flavin-containing] A (Homo sapiens, UniProt P21397)
# T1 sequence (P21397 whole entry): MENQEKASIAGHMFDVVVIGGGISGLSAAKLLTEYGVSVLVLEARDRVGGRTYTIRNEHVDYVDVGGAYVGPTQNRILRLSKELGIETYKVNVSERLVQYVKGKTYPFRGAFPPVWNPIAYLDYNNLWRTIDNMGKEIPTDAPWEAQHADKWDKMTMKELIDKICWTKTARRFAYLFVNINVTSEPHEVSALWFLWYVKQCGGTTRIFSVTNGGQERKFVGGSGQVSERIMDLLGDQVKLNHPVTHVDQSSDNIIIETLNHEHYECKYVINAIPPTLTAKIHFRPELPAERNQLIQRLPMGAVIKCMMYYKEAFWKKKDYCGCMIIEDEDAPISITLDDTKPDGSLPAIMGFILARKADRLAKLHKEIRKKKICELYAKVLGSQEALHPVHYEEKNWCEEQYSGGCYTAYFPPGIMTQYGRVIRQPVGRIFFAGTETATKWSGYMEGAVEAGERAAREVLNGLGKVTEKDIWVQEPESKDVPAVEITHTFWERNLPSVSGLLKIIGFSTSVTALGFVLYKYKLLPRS
# Experiment: Fluorescence-Based (Inhibitor)-Screening Assay: In order to monitor MAO enzymatic activities and/or their inhibition rate by inhibitor(s) of interest, a fluorescence-based (inhibitor)-screening assay was set up. 3-(2-Aminophenyl)-3-oxopropanamine (kynuramine dihydrobromide, Sigma Aldrich), a non fluorescent compound was chosen as a substrate. Kynuramine is a non-specific substrate for both MAO-A and MAO-B activities. While undergoing oxidative deamination by MAO activities, kynuramine is converted into 4-hydroxyquinoline (4-HQ), a resulting fluorescent product.The monoamine oxidase activity was estimated by measuring the conversion of kynuramine into 4-hydroxyquinoline. Assays were conducted in 96-well black plates with clear bottom (Corning) in a final volume of 100 uL. The assay buffer was 100 mM HEPES, pH 7.5. […] Clorgyline and Deprenyl (Sigma Aldrich) was used as a control for specific inhibition of MAO-A and MAO-B respectively. After leaving the enzyme(s) interacting with the inhibitor, KM of kynuramine was added to each reaction for MAO-B and MAO-A assay respectively, and the reaction was left for 1 hour at 37° C. in the dark. The oxidative deamination of the substrate was stopped by adding 50 uL of NaOH 2N. […] The IC50 values of each inhibitor were calculated with GraphPad Prism Software.
smiles,measurement,value
N[C@H]1CC[C@H](N[C@@H]2C[C@H]2c2ccccc2)CC1,Ki,> 40 µM
